Reference: patent US6462052B1, “Synergistic fungicide and/or bactericide composition” (Rhone-Poulenc Agro, priority 1998, dated 2002)

System: Venturia inaequalis
Assay: Combination of pyrimethanil and dodine in controlling apple scab: curative treatment of inoculated apple plants
Type: in vivo
Conditions: for Practical efficacy: treated 3 days after inoculation, scored one month after inoculation; for Protection (in words): used alone
Method: Example: Combination of pyrimethanil and dodine in controlling apple scab
The fungicides evaluated are the following:
The fungicidal compositions evaluated are the following:
Apple plants (var. Melrose Golden) at the 5-6-leaf stage are inoculated with an aqueous suspension containing 150 000 spores of Venturia inaequalis/ml of inoculum. The plants are then placed in a climatic cell at 16-18° C., 100% RH (relative humidity) for 3 days. They are then treated with the fungicidal compositions at the doses cited above (12 repeats/dose) in a plant protection mixture at 500 l/ha and are again placed under the conditions described above. One month after the inoculation, scores are awarded. This consists in estimating the diseased leaf surface area in the two leaf stages sensitive to the disease and, by comparing with an untreated contaminated control, in defining the percentage efficacy according to the following formula:
% practical efficacy=100×(% contamination Control−% contamination Trial)/% contamination Control
The theoretical efficacy according to the Colby formula is calculated based on the following formula:
% theoretical efficacy A+B=% practical eff. A+% practical eff. B−(% practical eff. A×% practical eff. B/100)

Question: Which Practical efficacy (dodine 150 g/ha alone) does the source give for dodecylguanidine monoacetate [dodine] here?
Answer: 30.8%

Question: What about the Practical efficacy (dodine 300 g/ha alone) of the same compound?
Answer: 76.9%

Question: And the Practical efficacy (dodine 600 g/ha alone)?
Answer: 75%

Question: And the “Protection (in words)” value?
Answer: partial protection

Question: What does the source list for `Cc1cc(C)nc(Nc2ccccc2)n1` [pyrimethanil]?
Answer: Practical efficacy (pyrimethanil 50 g/ha alone, apple plants var. Melrose Golden): 65.4%; Practical efficacy (pyrimethanil 100 g/ha alone): 65.4%; Practical efficacy (pyrimethanil 200 g/ha alone): 61.5%; Protection (in words): partial protection
